16 compounds from ChEMBL document CHEMBL3137386, “DNDi T. cruzi fenarimol series dataset from which preclinical candidate EPL-BS1246 was identified (see also related datasets CHEMBL2448688 and CHEMBL3137440)” can be followed below.

Converted amounts (≈) assume the structure as drawn. “And” between values parts separate entries of the source, which are not always exact repeats. Identical values can stand only once.

In data set [1] the test system is Trypanosoma cruzi. The experiment in a line: (§1) DNDI: Chagas in vitro. The class given is functional, organism-based, Tulahuen C4 (LacZ).
Data set [2] relates to Trypanosoma cruzi. The data set is described as §1. It counts as functional, Tulahuen C4 (LacZ).
The nature of data set [3]: (§2) DNDI: Cytotoxicity against L-6 rat myoblasts from skeletal muscle. It counts as toxicity, cell-based, Muscle tissue, L6. The note with it: rat, L6 rat skeletal muscle myoblasts.
Data set [4] deals with Trypanosoma brucei rhodesiense. The data set is described as follows: DNDI: HAT in vitro. The class given is functional, organism-based. To be noted: ATCC 30027.
Another data set has as its target Cytochrome P450 3A4 (Homo sapiens, UniProt P08684). The experiment in a line: DNDI: CYP Inhibition. It counts as ADME.
In a further data set the test system is L6. The data set is described as §2. It counts as toxicity, cell-based, Muscle tissue. The note with it: l6.
The nature of data set [5]: DNDI: Lipophilicity (gLogD) at pH 3. It counts as physicochemical. The note with it: buffer.
The nature of data set [6]: DNDI: Metabolism. It counts as ADME, Microsome. To be noted: human, microsomes; for hepatic extraction ratio: read-out: EH.
Data set [7] is described as follows: DNDI: Solubility in 0.01M HCl at pH 2 determined by nephelometry. It counts as physicochemical. The note with it: 0.01 M HCl.
Data set [8] in a line: DNDI: Lipophilicity (gLogD) at pH 7.4. It counts as physicochemical. The note with it: buffer.
Data set [9] in a line: DNDI: Solubility in phosphate buffer at pH 6.5 determined by nephelometry. The class given is physicochemical.
Setting [10] is: Trypanosoma cruzi, Tulahuen C4 (LacZ).

Chain of Cytochrome P450 3A4 (P08684 whole entry): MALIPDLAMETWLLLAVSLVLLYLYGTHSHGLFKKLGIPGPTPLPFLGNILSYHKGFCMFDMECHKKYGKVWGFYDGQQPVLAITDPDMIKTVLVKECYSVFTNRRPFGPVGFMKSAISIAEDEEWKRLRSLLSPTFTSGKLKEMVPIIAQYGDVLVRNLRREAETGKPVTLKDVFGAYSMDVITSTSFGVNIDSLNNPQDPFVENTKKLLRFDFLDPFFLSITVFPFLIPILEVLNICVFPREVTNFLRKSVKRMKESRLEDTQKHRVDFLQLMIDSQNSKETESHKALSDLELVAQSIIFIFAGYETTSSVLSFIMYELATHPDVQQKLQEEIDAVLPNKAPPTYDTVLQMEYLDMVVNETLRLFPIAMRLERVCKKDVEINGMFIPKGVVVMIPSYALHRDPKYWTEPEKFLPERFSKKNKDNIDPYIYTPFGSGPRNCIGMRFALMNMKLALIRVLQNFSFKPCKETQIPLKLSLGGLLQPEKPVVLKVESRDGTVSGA

What is called IC50 is the concentration that gives 50% inhibition. Higher therefore signals weaker potency. The IC90 is the point of the concentration-response curve where the effect stands at 90%. A high value points to a need for much substance. As for `O=S(=O)(Cc1ccccc1)Nc1cnccc1N1CCN(c2ccc(C(F)(F)F)cc2)CC1`, the results for the IC50 (in the data set on Trypanosoma cruzi [1] (setting [10]); in data set [3]; in [4]) were 0.018 µM, above 100 µM and above 10 µM, respectively. The 90% effect level in the data set with Trypanosoma cruzi [2] (setting [10]) (IC90) was put at 0.029 µM.

Broadly, the chromatographic logD is lipophilicity estimated from chromatographic retention. A word on the half-life: it is how long it takes for the measured level to halve. A higher half-life goes with slow decline. As usually defined, the microsomal CLint is the rate of metabolic loss divided by the concentration. A word on the kinetic solubility: it is the concentration staying in solution when a stock, usually in DMSO, is diluted into the medium. As for `N#Cc1ccc(C(C(=O)N2CCN(c3ccc(C(F)(F)F)cc3)CC2)c2cccnc2)cc1` (centres undefined), the IC50 with Trypanosoma cruzi [1] was 0.01 µM and 0.012 µM and 0.0675 µM. In addition, the IC90 in the data set on Trypanosoma cruzi [2] is 0.027 µM and 0.0715 µM and > 0.1 µM. At Cytochrome P450 3A4, this compound displayed a half-maximal inhibitory concentration (IC50) above 20 µM. Moreover, in [3], 73.8 µM corresponded to half-maximal inhibition (IC50). In the data set on L6, this compound displayed an IC50 of 54.7 µM. Moreover, the IC50 in [4] was above 10 µM. In data set [5], this compound gave a chromatographic logD of 3.5. In [6], the Clint was 42 µL/min/mg and 38 µL/min/mg; the EH is 0.68 and 0.7; the half-life turned out to be 50 min; the microsomal CLint was found to be 35 µL/min/mg. Further, in [6], the “t (1 / 2)” value is 41 min and 45 min; the hepatic extraction ratio was determined as 0.66. In data set [7], the solubility (kinetic) is above 0.1 mg/mL.

Consider `O=C(c1ccc(Cl)cc1)N1CCN(C(=O)C(c2ccc(Cl)cc2)c2cccnc2)CC1` (centres undefined), for which the half-inhibitory concentration (IC50) in the data set with Trypanosoma cruzi [1] (setting [10]) is 0.022 µM; in data set [3], above 100 µM; in data set [4], above 10 µM. The IC90 with Trypanosoma cruzi [2] (setting [10]) is above 0.1 µM.

With `COCCN1CCN(C(=O)C(c2ccc(Cl)cc2)c2cccnc2)CC1` (centres undefined), the IC50 in the data set on Trypanosoma cruzi [1] (setting [10]) is above 0.1 µM; in data set [3] it was above 100 µM; in data set [4] it was above 10 µM. The compound further showed an IC90 in the data set with Trypanosoma cruzi [2] (setting [10]) above 0.1 µM.

Consider `CS(=O)(=O)c1ccc(N2CCN(C(=O)C(c3ccc(Cl)cc3)c3cncnc3)CC2)cc1` (centres undefined), for which the IC50 with Trypanosoma cruzi [1] was 0.0635 µM and > 0.1 µM; in the data set on Trypanosoma cruzi [1] (setting [10]), 0.0783 µM; against Cytochrome P450 3A4, above 20 µM; in data set [3], above 100 µM; in [4], above 10 µM. Besides, the IC90 in the data set on Trypanosoma cruzi [2] (setting [10]) was above 0.1 µM. In addition, the chromatographic logD in data set [5] and in data set [8] was 2.6 in each case. For the same compound, the Clint in data set [6] was 34 µL/min/mg and 69 µL/min/mg and 40 µL/min/mg. Moreover, the EH in data set [6] was 0.69 and 0.66. This compound showed a half-life in data set [6] of 50 min. Besides, the “t (1 / 2)” value in data set [6] was 25 min and 43 min. Besides, the hepatic extraction ratio in data set [6] is 0.79. Further, the solubility (kinetic) in [7] was determined as 0.025 mg/mL (≈ 53.1 µM); in data set [9], 0.0063 mg/mL (≈ 13.4 µM).

With `O=C(C(c1ccc(Cl)cc1)c1cccnc1)N1CCN(Cc2cccc(C(F)(F)F)c2)CC1` (centres undefined), the values for the concentration for half-maximal inhibition (IC50) (in the data set on Trypanosoma cruzi [1] (setting [10]); in data set [4]) were 0.0149 µM and above 10 µM, respectively. The compound also registered an IC90 in the data set with Trypanosoma cruzi [2] (setting [10]) above 0.1 µM.

With `N#Cc1ccc(C(C(=O)N2CCN(c3ccc(C(F)(F)F)cn3)CC2)c2cccnc2)cc1` (centres undefined), the IC50 with Trypanosoma cruzi [1] was 0.023 µM and 0.012 µM and > 0.1 µM. The IC90 in the data set with Trypanosoma cruzi [2] was 0.0565 µM and 0.0465 µM and > 0.1 µM. The IC50 against Cytochrome P450 3A4 was above 20 µM. This compound also showed an IC50 in data set [3] above 100 µM. In the data set with L6, this compound came in with an IC50 of 78.7 µM. This compound came in with an IC50 in [4] above 10 µM. The compound further came in with a chromatographic logD in data set [5] of 3.1. Also, in data set [6], the Clint is 21 µL/min/mg and 23 µL/min/mg; the EH is 0.56 and 0.54; the half-life worked out at 60 min; the microsomal CLint was 29 µL/min/mg. Moreover, in [6], the “t (1 / 2)” value was 83 min and 77 min; the hepatic extraction ratio is 0.62. This compound also had a solubility (kinetic) in data set [7] above 0.1 mg/mL.

In the case of `CC(C)CN1CCN(C(=O)C(c2ccc(Cl)cc2)c2cccnc2)CC1` (centres undefined), the figures for the IC50 (in the data set with Trypanosoma cruzi [1] (setting [10]); in data set [3]; in data set [4]) were 0.065 µM, above 100 µM and above 10 µM, respectively. For the same compound, the IC90 in the data set with Trypanosoma cruzi [2] (setting [10]) is above 0.1 µM.

For the compound `O=C(C(c1ccc(Cl)cc1)c1cncnc1)N1CCN(c2ccc(C(F)(F)F)cc2)CC1` (centres undefined), the IC50 is 0.118 µM with Trypanosoma cruzi [1] (setting [10]), 20 µM at Cytochrome P450 3A4, 51.3 µM in data set [3] and above 10 µM in data set [4]. In the data set with Trypanosoma cruzi [2] (setting [10]), this compound had an IC90 above 0.1 µM. Besides, the chromatographic logD in [5] and in data set [8] was 4.2 each time. In data set [6], this compound displayed a half-life of 30 min. In [6], this compound yielded a microsomal CLint of 59 µL/min/mg. Also, the hepatic extraction ratio in data set [6] amounted to 0.77. The kinetic solubility in data set [7] and in data set [9] was 0.0031 mg/mL (≈ 6.73 µM) throughout.

Regarding `O=C(C(c1ccc(Cl)cc1)c1cncnc1)N1CCN(c2ccc(C(F)(F)F)cn2)CC1` (centres undefined), the half-maximal inhibitory concentration (IC50) in the data set with Trypanosoma cruzi [1] (setting [10]) was 0.161 µM; against Cytochrome P450 3A4, 18 µM; in data set [3], 52.5 µM; in [4], above 10 µM. Further, the IC90 with Trypanosoma cruzi [2] (setting [10]) was above 0.1 µM. Also, the chromatographic logD in data set [5] and in [8] was 3.9 each time. In [6], this compound yielded a half-life of 23 min. For the same compound, the microsomal CLint in data set [6] stood at 76 µL/min/mg. The hepatic extraction ratio in data set [6] is 0.81. For the same compound, the solubility (kinetic) in data set [7] was determined as 0.05 mg/mL (≈ 108 µM); in [9] it was 0.0063 mg/mL (≈ 13.6 µM).

Consider `O=C(C(c1ccc(Cl)cc1)c1cccnc1)N1CCN(Cc2ccccc2C(F)(F)F)CC1` (centres undefined), for which the IC50 was above 0.1 µM with Trypanosoma cruzi [1] (setting [10]), 15 µM against Cytochrome P450 3A4, 54.2 µM in data set [3] and above 10 µM in data set [4]. Further, the IC90 in the data set with Trypanosoma cruzi [2] (setting [10]) is above 0.1 µM. This compound had a half-life in data set [6] of 4 min. The compound also yielded a microsomal CLint in [6] of 460 µL/min/mg. For the same compound, the hepatic extraction ratio in [6] was determined as 0.96.

Take `O=C(C(c1ccc(Cl)cc1)c1cncnc1)N1CCN(c2ccc(C(F)(F)F)nc2)CC1` (centres undefined): the IC50 in the data set with Trypanosoma cruzi [1] (setting [10]) is 0.253 µM; against Cytochrome P450 3A4, above 20 µM; in data set [3] it was above 100 µM; in data set [4], above 10 µM. In the data set on Trypanosoma cruzi [2] (setting [10]), this compound showed an IC90 above 0.1 µM. For the same compound, the chromatographic logD in [5] amounted to 3.4; in [8] it was 3.3. In data set [6], the half-life was 31 min. In data set [6], the microsomal CLint is 56 µL/min/mg. Also, the hepatic extraction ratio in data set [6] was determined as 0.76. The kinetic solubility in data set [7] and in data set [9] was 0.0125 mg/mL (≈ 27.1 µM) throughout.

As for `CC(C)(C)OC(=O)N1CCN(C(=O)C(c2ccc(C#N)cc2)c2cccnc2)CC1` (centres undefined), the IC50 in the data set with Trypanosoma cruzi [1] (setting [10]) is 0.066 µM; in data set [3], above 100 µM; in data set [4] it was above 10 µM. For the same compound, in the data set with Trypanosoma cruzi [2] (setting [10]), the concentration for an effect of 90% (IC90) was above 0.091 µM.

Regarding `O=C(c1ccccc1)N1CCN(C(=O)C(c2ccc(Cl)cc2)c2cccnc2)CC1` (centres undefined), the IC50 with Trypanosoma cruzi [1] (setting [10]) is 0.0495 µM; in data set [3], above 100 µM; in data set [4] it was above 10 µM. For the same compound, the IC90 in the data set on Trypanosoma cruzi [2] (setting [10]) was above 0.1 µM.

`CS(=O)(=O)c1ccc(N2CCN(C(=O)C(c3ccc(C#N)cc3)c3cccnc3)CC2)cc1` (centres undefined): the IC90 with Trypanosoma cruzi [2] is > 0.1 µM and 0.0291 µM. This compound also showed an IC50 at Cytochrome P450 3A4 above 20 µM. Also, in data set [3], the IC50 is above 100 µM. Further, the IC50 in data set [4] was above 10 µM. In data set [5], this compound showed a chromatographic logD of 1.8. This compound yielded a chromatographic logD in data set [8] of 2.3. Further, in data set [6], the Clint was 15 µL/min/mg and 10 µL/min/mg and < 7 µL/min/mg; the EH was 0.36 and < 0.28; the “t (1 / 2)” value is 113 min and 169 min and > 250 min; the hepatic extraction ratio was 0.46. The solubility (kinetic) in data set [7] was above 0.1 mg/mL.

With `O=C(C(c1ccc(Cl)cc1)c1cccnc1)N1CCN(c2nccs2)CC1` (centres undefined), the IC50 is 0.051 µM in the data set on Trypanosoma cruzi [1] (setting [10]), above 100 µM in data set [3] and above 10 µM in data set [4]. In addition, the IC90 with Trypanosoma cruzi [2] (setting [10]) was above 0.1 µM.
